The source of these data is patent publication US9200319B2, “Nucleotides and nucleosides and methods for their use in DNA sequencing” (Lasergen, Inc., priority 2008, dated 2015).

Where “and” joins values, the source holds several entries; their conditions need not be identical. Equal entries are not always repeated. Where two headings read alike, the source gives them in different places.

The target in experiment [1] is T1, THERMINATOR™ DNA polymerase (Thermococcus sp., UniProt Q56366, A485L/D141A/E143A).
T1 construct: purchased New England Biolabs
The experiment in a line: biochemical. On the set-up: species or system Thermococcus species 9° N-7. The protocol: Natural and modified nucleotides were tested for incorporation efficiency using the “polymerase end point assay” (Wu et al., 2007, which is incorporated herein by reference). This assay examines incorporation efficiency on matched and mismatched template bases. Incorporation efficiency is measured by determining the concentration at which the compound incorporates on half the primer-template complexes (IC50). Titrations of increasing compound concentration were performed to generate curves from which the IC50 can be determined.
The sequence of the template DNA is selected depending on which compound will be tested. For example, the first interrogation base after the primer in the template sequence is the complement base of the compound when measuring incorporation efficiency, and one of three mismatched bases when measuring mismatch discrimination properties.
(§1) To the annealed reaction, a DNA polymerase (e.g., THERMINATOR™ DNA polymerase, 0.25 units per reaction, New England Biolabs), 1× Thermopol Buffer, and a known concentration of either natural or modified nucleotide are added to each 10 μL reaction and incubated at 75° C. for 10 minutes, cooled on ice, and quenched with 10 μL of stop solution (98% formamide: 10 mM Na2EDTA, pH=8.0, 25 mg/ml Blue Dextran). Stopped reactions are heated to 75° C. for 30 seconds to denature the DNA, and then placed on ice. The extension products are analyzed on a 10% Long Ranger (Lonza) polyacrylamide gel using an ABI model 377 DNA sequencer. Additional details are provided in Example 1, below.
Polymerase Assays. Natural and modified nucleotides were tested for incorporation efficiency using the “polymerase end point assay” (Wu et al., 2007, which is incorporated herein by reference). This assay examines incorporation efficiency on matched and mismatched template bases. Incorporation efficiency is measured by determining the concentration at which the compound incorporates on half the primer-template complexes (IC50). Titrations of increasing compound concentration were performed to generate curves from which the IC50 can be determined.
The assay is performed by first annealing 5 nM of BODIPY-FL labeled primer with 40 nM template DNA in 1× Thermopol Buffer (20 mM Tris-HCl, pH 8.8; 10 mM (NH4)2SO4; 10 mM KCl; 2 mM MgSO4; 0.1% Triton X-100, New England BioLabs).
The temperature cycle to complete primer annealing is 80° C. for 30 seconds, 57° C. for 30 seconds, then cooling to 4° C. The sequence of the template DNA is selected depending on which compound will be tested. For example, the first interrogation base after the primer in the template sequence is the complement base of the compound when measuring incorporation efficiency, and one of three mismatched bases when measuring mismatch discrimination properties.
as §1, with “sequencer.” for “sequencer. Additional details are provided in Example 1, below.”

Experiment [2] concerns the target T1, THERMINATOR™ DNA polymerase. The experiment in a line: termination assay, weighted sum analysis on homopolymer repeat template. Type of experiment: biochemical, Thermococcus species 9° N-7. Particulars: 1.0 = complete termination after a single incorporation. As to the method:
A weighted sum of 1.0 represents complete termination after a single incorporation, while a value greater than 1.0 indicates incorporation beyond the +1 position (e.g. nucleotide read through). […] The assay is performed as described above for the polymerase end-point assay, except that the template used is a homopolymer repeat, thereby allowing for multiple incorporations of a given nucleotide compound.

[3] abbreviates: concentration at which the compound incorporates on half the primer-template complexes, complement template base, read-out: IC50 for incorporation.
The mark [4] stands for this setting: IC50 for incorporation, concentration at which the compound incorporates on half the primer-template complexes, complement template base.
[5] abbreviates: Adj IC50 Conc (nM), adjusted IC50 used to set the concentrations of the termination assay.

T1 sequence (Q56366 whole entry D141A/E143A/A485L): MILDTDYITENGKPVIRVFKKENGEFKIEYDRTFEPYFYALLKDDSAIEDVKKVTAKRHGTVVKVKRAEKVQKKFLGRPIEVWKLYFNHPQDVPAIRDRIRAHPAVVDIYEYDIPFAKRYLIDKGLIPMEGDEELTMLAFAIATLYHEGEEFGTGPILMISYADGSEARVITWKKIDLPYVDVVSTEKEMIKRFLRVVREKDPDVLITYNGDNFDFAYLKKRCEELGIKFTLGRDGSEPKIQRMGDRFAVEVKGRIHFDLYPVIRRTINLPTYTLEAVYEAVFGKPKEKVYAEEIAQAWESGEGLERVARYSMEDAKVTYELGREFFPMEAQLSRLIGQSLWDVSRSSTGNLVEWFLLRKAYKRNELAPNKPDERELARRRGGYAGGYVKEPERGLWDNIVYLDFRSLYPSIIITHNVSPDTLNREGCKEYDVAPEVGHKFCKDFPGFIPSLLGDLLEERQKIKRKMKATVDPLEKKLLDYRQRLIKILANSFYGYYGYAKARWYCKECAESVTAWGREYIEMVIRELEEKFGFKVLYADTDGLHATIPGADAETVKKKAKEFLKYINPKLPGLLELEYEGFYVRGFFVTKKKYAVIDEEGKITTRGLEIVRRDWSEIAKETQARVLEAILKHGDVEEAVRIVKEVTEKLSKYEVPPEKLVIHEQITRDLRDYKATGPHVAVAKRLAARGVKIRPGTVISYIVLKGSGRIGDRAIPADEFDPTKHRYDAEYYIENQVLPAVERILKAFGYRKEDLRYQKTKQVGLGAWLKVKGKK

Consider “5-(α-isopropyl-2-nitrobenzyloxy)methyl-2′-dUTP-5-R6G [6p005]”, for which the IC50 in experiment [1] (setting [3]) was 15 ± 1 nM.
Consider “5-(α-isopropyl-2-nitrobenzyloxy)methyl-2′-dUTP-6-FAM [6p094]”, for which the IC50 in experiment [1] (setting [3]) amounted to 8.1 ± 0.2 nM.
Still for that read-out and setting: then “5-(α-isopropyl-2-nitrobenzyloxy)methyl-2′-dUTP-6-ROX [6p044]”, with 18 ± 1 nM; and “6-ROX labeled 7-{(R)-1-[4-(3-amino-1-propynyl)-2-nitrophenyl]-2-methyl-propyloxy}methyl-7-deaza-2′-deoxyguanosine-5′-triphosphate [6p034]”, with 7.4 ± 0.1 nM.
In the case of `CC(OCc1cn([C@H]2C[C@H](O)[C@@H](COP(=O)(O)OP(=O)(O)OP(=O)(O)O)O2)c(=O)[nH]c1=O)c1ccccc1[N+](=O)[O-]` (mixture of isomers) [2p043, 5-(α-methyl-nitrobenzyl-oxymethyl)-2′-dUTP], the IC50 was 1.7 nM in experiment [1] (adjusted IC50 used to set the concentrations of the termination assay, read-out: Adj IC50 Conc) and 1.7 ± 0.2 nM in experiment [1] (setting [3]). Further, the “Average Weighted Sum ± SD” value was 0.53 ± 0.06 in experiment [2] (1x IC50), 1.1 ± 0.0 in experiment [2] (5x IC50) and 1.7±0.1 in experiment [2] (25x IC50).
The compound `CC(Oc1nc(N)nc2c1ncn2[C@H]1C[C@H](O)[C@@H](COP(=O)(O)OP(=O)(O)OP(=O)(O)O)O1)c1ccccc1[N+](=O)[O-]` (mixture of isomers) [2p143, O^6-(α-methyl-2-nitrobenzyl)-2′-dGTP] showed an IC50 in experiment [1] (setting [4]) of 10 nM.
Regarding `CC(C)C(OCc1cn([C@H]2C[C@H](O)[C@@H](COP(=O)(O)OP(=O)(O)OP(=O)(O)O)O2)c(=O)[nH]c1=O)c1ccccc1[N+](=O)[O-]` (mixture of isomers) [2p148, 5-(α-isopropyl-2-nitrobenzyloxy)methyl-2′-dUTP], the IC50 is 2.1 nM in experiment [1] (setting [5]) and 2.3 ± 0.1 nM in experiment [1] (setting [3]). Also, the “Average Weighted Sum ± SD” value in experiment [2] (1x IC50) was 0.59 ± 0.02; in experiment [2] (5x IC50), 0.99 ± 0.01; in experiment [2] (25x IC50), 1.0 and 1.0 ± 0.01.
`CC(Nc1ncnc2c1ncn2[C@H]1C[C@H](O)[C@@H](COP(=O)(O)OP(=O)(O)OP(=O)(O)O)O1)c1ccccc1[N+](=O)[O-]` (mixture of isomers) [3p006, N^6-(α-methyl-2-nitrobenzyl)-2′-dATP] registered an IC50 in experiment [1] (setting [4]) of 8.5 ± 1.8 nM.
As to `CC(C)C(OCc1cn([C@H]2C[C@H](O)[C@@H](COP(=O)(O)OP(=O)(O)OP(=O)(O)O)O2)c(=O)[nH]c1=O)c1ccccc1` (mixture of isomers) [5p111, 5-(α-isopropyl-benzyloxy)methyl-2′-dUTP], the IC50 in experiment [1] (setting [5]) and in experiment [1] (setting [4]) was 0.8 nM each time. Further, the “Average Weighted Sum ± SD” value in experiment [2] (1x IC50) is 0.44 ± 0.02; in experiment [2] (5x IC50), 0.96 ± 0.01; in experiment [2] (25x IC50), 1.1 and 1.1 ± 0.03.
In experiment [1] (setting [4]), `CC(C)(C)C(OCc1cn([C@H]2C[C@H](O)[C@@H](COP(=O)(O)OP(=O)(O)OP(=O)(O)O)O2)c(=O)[nH]c1=O)c1ccccc1[N+](=O)[O-]` (single isomer, unassigned) [3p075, 5-[(R or S)-1-(2-nitrophenyl)-2,2-dimethyl-1-propyloxy]methyl-2′-deoxyuridine-5′-triphosphate] came in with an IC50 of 3 nM.
As to `CC(C)C(Nc1ncnc2c1ncn2[C@H]1C[C@H](O)[C@@H](COP(=O)(O)OP(=O)(O)OP(=O)(O)O)O1)c1ccccc1[N+](=O)[O-]` (single isomer, unassigned) [6p063, N^6-(α-isopropyl-2-nitrobenzyl)-2′-dATP], the IC50 in experiment [1] (setting [4]) amounted to 12 ± 1 nM.
Still for that read-out and setting: then `Nc1nc(OCc2ccccc2[N+](=O)[O-])c2ncn([C@H]3C[C@H](O)[C@@H](COP(=O)(O)OP(=O)(O)OP(=O)(O)O)O3)c2n1` [2p108, O^6-(2-nitrobenzyl)-2′-dGTP], with 4 ± 0.7 nM; and `CC(C)[C@H](OCc1cn([C@H]2C[C@H](O)[C@@H](COP(=O)(O)OP(=O)(O)OP(=O)(O)O)O2)c(=O)[nH]c1=O)c1ccccc1[N+](=O)[O-]` [3p063, 5-[(S)-1-(2-nitrophenyl)-2-methyl-propyloxy]methyl-2′-deoxyuridine-5′-triphosphate], with 2 nM.
In experiment [1] (setting [4]), `CC(C)[C@H](OCc1cn([C@H]2C[C@H](O)[C@@H](COP(=O)(O)OP(=O)(O)OP(=O)(O)O)O2)c(=O)nc1N)c1ccccc1[N+](=O)[O-]` [3p065, 5-[(S)-1-(2-nitrophenyl)-2-methyl-propyloxy]methyl-2′-deoxycytidine-5′-triphosphate] returned an IC50 of 1.1 ± 0.1 nM.
As for `Nc1ncnc2c1c(COCc1ccccc1[N+](=O)[O-])cn2[C@H]1C[C@H](O)[C@@H](COP(=O)(O)OP(=O)(O)OP(=O)(O)O)O1` [5p085, 7-(2-nitrobenzyloxy)methyl-7-deaza-2′-deoxyadenosine-5′-triphosphate], in experiment [1] (setting [4]), the IC50 worked out at 3.6 ± 0.3 nM.
Regarding `O=c1[nH]c(=O)n([C@H]2C[C@H](O)[C@@H](COP(=O)(O)OP(=O)(O)OP(=O)(O)O)O2)cc1COCc1ccccc1` [5p145, 5-(benzyloxy)methyl-2′-deoxyuridine-5′-triphosphate], the IC50 in experiment [1] (setting [5]) and in experiment [1] (setting [4]) was 1.4 nM throughout. The “Average Weighted Sum ± SD” value in experiment [2] (1x IC50) was 0.43 ± 0.1; in experiment [2] (5x IC50), 1.3 ± 0.3; in experiment [2] (25x IC50), 2.9 and 2.9 ± 0.4.
On to `Cc1ccccc1COCc1cn([C@H]2C[C@H](O)[C@@H](COP(=O)(O)OP(=O)(O)OP(=O)(O)O)O2)c(=O)[nH]c1=O` [5p147, 5-(2-methylbenzyloxy)methyl-2′-deoxyuridine-5′-triphosphate], for which the IC50 in experiment [1] (setting [5]) and in experiment [1] (setting [4]) was 1.4 nM throughout. Besides, the “Average Weighted Sum ± SD” value was 0.51 ± 0.1 in experiment [2] (1x IC50), 1.5 ± 0.3 in experiment [2] (5x IC50) and 2.6 ± 0.4 in experiment [2] (25x IC50).
In the case of `CC(C)c1ccccc1COCc1cn([C@H]2C[C@H](O)[C@@H](COP(=O)(O)OP(=O)(O)OP(=O)(O)O)O2)c(=O)[nH]c1=O` [5p149, 5-(2-isopropylbenzyloxy)methyl-2′-deoxyuridine-5′-triphosphate], the IC50 in experiment [1] (setting [5]) and in experiment [1] (setting [4]) was 1.4 nM each time. Further, the “Average Weighted Sum ± SD” value in experiment [2] (1x IC50) is recorded as 0.53 ± 0.1; in experiment [2] (5x IC50), 1.3 ± 0.1; in experiment [2] (25x IC50), 2.2 ± 0.2.
For the compound `O=c1[nH]c(=O)n([C@H]2C[C@H](O)[C@@H](COP(=O)(O)OP(=O)(O)OP(=O)(O)O)O2)cc1COCc1ccccc1-c1ccccc1` [6p010, 5-(2-phenylbenzyloxy)methyl-2′-deoxyuridine-5′-triphosphate], the IC50 in experiment [1] (setting [5]) and in experiment [1] (setting [4]) was 1.4 nM each time. Moreover, the “Average Weighted Sum ± SD” value in experiment [2] (1x IC50) was 0.46 ± 0.1; in experiment [2] (5x IC50), 1.1 ± 0.1; in experiment [2] (25x IC50), 1.7 and 1.7 ± 0.3.
`Nc1ccn([C@H]2C[C@H](O)[C@@H](COP(=O)(O)OP(=O)(O)OP(=O)(O)O)O2)c(=O)n1` [dCTP, reference compound]: in experiment [1] (setting [3]), the IC50 was 3 ± 0.6 nM.
In the case of “C^7-(α-isopropyl-2-nitrobenzyloxy)methyl-2′-dATP-6-CR110 [5p130-LP2]”, the IC50 in experiment [1] (setting [3]) worked out at 15 ± 3 nM.
